In ChEMBL document CHEMBL1146815, “Novel dual inhibitors of calpain and lipid peroxidation” (Bioorg Med Chem Lett, 2004):

How the values were obtained:
[1] = molecular target: T1, Calpain-1 catalytic subunit (Homo sapiens, UniProt P07384); experiment: Inhibitory activity against on human calpain 1
T1 sequence (P07384 whole entry): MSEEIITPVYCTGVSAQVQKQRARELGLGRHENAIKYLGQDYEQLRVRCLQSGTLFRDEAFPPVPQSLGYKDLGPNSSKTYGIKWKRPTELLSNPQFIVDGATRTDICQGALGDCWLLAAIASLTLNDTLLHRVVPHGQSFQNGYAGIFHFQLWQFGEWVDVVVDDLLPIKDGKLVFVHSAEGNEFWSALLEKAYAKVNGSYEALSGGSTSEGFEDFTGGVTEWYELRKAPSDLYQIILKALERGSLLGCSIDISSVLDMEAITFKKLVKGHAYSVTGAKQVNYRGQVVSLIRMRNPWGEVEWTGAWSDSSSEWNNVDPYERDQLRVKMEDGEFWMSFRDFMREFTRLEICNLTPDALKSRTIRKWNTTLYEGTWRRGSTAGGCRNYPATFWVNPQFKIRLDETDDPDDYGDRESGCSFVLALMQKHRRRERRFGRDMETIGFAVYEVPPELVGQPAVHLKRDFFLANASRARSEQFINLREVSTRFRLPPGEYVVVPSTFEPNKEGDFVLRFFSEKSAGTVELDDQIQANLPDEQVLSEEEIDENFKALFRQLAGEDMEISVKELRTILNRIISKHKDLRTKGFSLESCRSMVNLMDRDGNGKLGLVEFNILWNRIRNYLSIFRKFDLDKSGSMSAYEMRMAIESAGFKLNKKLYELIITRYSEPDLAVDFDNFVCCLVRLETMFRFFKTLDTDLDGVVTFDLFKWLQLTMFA

Rattus norvegicus = species: Rattus norvegicus; experiment: Ability to inhibit [Fe2+] induced lipid peroxidation (LPO) in rat brain microsomes; assay type: functional
C6 [2] = experiment: Protection against C6 glial cell death induced by maitotoxin; assay type: functional, cell-based; conditions: Rattus norvegicus
[3] = molecular target: T1, Calpain-1 catalytic subunit; experiment: Inhibitory activity against on calpain in C6 glial cells; Not active; assay type: functional, cell-based, Rattus norvegicus
C6 [4] = experiment: Protection against C6 glial cell death induced by maitotoxin at 100 uM concentration; assay type: functional; conditions: Rattus norvegicus
[5] = molecular target: T1, Calpain-1 catalytic subunit; experiment: Inhibitory activity against on human calpain 1; Not active

| SMILES | IC50 [1] [nM] | IC50 (Rattus norvegicus) [nM] | IC50 (C6 [2]) [nM] | IC50 [3] | inhibition at 100 µM (C6 [4]) [%] | IC50 [5] |
| --- | --- | --- | --- | --- | --- | --- |
| CC(C)C[C@H](NC(=O)c1cccc2c1Nc1ccccc1S2)C(=O)N[C@H]1CCOC1O (some centres not stated) | 82 | 3600 | – | – | – | – |
| CC(C)C[C@H](NC(=O)c1ccc2c(c1)Nc1ccccc1S2)C(=O)N[C@H]1CCOC1O (some centres not stated) | 22.5 | 70 | 38500 | – | – | – |
| Cc1cc(C(C)(C)C)c(O)c(C(C)(C)C)c1 [BUTYLATED HYDROXYTOLUENE] | – | 3250 | – | Not Active | 21 | Not Active |
| Cc1c(C)c2c(c(C)c1O)CCC(C)(C(=O)N[C@@H](CC(C)C)C(=O)N[C@H]1CCOC1O)O2 (some centres not stated) | 147 | 1700 | – | – | – | – |
| CC(=O)OC1OCC[C@@H]1NC(=O)[C@H](CC(C)C)NC(=O)c1ccc2c(c1)Nc1ccccc1S2 (some centres not stated) | – | – | 15500 | – | – | – |
